Experiment [1] deals with mice. Put plainly: Spontaneous (locomotor) activity in mice, compound alone (agonism test). The experiment is classed as in vivo. To be noted: for ED50: mice, i.v., read-out: SA: > dose, 50% activity not achieved at this highest dose tested; for Max % inhibit of spontaneous locomotor activity, Compound Alone (in words: stimulation instead of inhibition): doses in mg/kg; for change in vivo at 30 mg/kg: at 30 mg/kg i.v. The method, then:
(§1) Male ICR mice (25-32 g), purchased from Harlan (Dublin, Va.), were housed in groups of five. All animals were kept in a temperature-controlled (20-22° C.) environment with a 12-hour light-dark cycle (lights on at 7 a.m.). Separate mice were used for testing each drug dose in the in vivo behavioral procedures. The mice were maintained on a […] light: dark cycle, and received food and water ad libitum. Brain tissue for binding studies was obtained from male Sprague-Dawley rats (150-200 g) purchased from Harlan Laboratories (Dublin, Va.).
(§2) Measurement of spontaneous activity in mice occurred in standard activity chambers interfaced with a Digiscan Animal Activity Monitor (Omnitech Electronics, Inc., Columbus, Ohio). A standard tail-flick apparatus (described by Dewey et al., 1970) and a digital thermometer (Fisher Scientific, Pittsburgh, Pa.) were used to measure antinociception and rectal temperature, respectively.
(§3) All drugs were administered to the mice intravenously (i.v.) in the tail vein at a volume of 0.1 ml/10 g.
(§4) Maximum latency of 10 sec was used.

Experiment [2] relates to mice. Nature of the experiment: Tail-flick antinociception in mice, compound alone (agonism test). It is filed as in vivo. To be noted: Mus musculus, iv, read-out: TF: > dose, 50% activity not achieved at this highest dose tested. The method, then:
as §1, §2, §3, §4

For a further experiment, the target named is CB1 receptor (Rattus norvegicus, UniProt P20272). Nature of the experiment: biochemical. The note with it: for Ki: 1 nM [3H] CP 55,940, rat whole brain P2 membranes, 30° C. for 1 hr. The experiment is classed as binding. The method, then: as §1
CB1 receptor, sequence (P20272 whole entry): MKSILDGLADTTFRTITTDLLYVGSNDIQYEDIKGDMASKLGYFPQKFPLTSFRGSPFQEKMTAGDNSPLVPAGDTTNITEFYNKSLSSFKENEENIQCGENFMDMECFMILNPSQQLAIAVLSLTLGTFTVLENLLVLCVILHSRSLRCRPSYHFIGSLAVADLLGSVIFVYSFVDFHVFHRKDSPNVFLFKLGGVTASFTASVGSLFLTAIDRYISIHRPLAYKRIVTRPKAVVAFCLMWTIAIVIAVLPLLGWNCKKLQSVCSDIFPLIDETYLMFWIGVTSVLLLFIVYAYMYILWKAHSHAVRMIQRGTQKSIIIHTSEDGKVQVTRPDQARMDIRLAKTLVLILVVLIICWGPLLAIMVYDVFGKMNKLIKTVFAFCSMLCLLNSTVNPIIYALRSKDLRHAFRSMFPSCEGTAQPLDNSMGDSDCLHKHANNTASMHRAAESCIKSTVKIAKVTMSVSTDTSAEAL
All assays, as described briefly below, were performed in triplicate, and the results represent the combined data from three to six individual experiments. Following decapitation and rapid removal of the brain, whole brain was homogenized and centrifuged. The resulting pellet was termed P1. The supernatant was saved and combined with the two subsequent supernatants obtained from washing of the P1 pellet. The combined supernatant fractions were centrifuged, resulting in the P2 pellet. After further incubation and centrifuging, this pellet was resuspended in assay buffer to a protein concentration of approximately 2 mg/ml. The membrane preparation was quickly frozen in a bath solution of dry ice and 2-methylbutane (Sigma Chemical Co., St. Louis, Mo.), then stored at −80° C. for no more than 2 weeks. […] Binding was initiated by the addition of 150 μg of P2 membrane to test tubes containing 1 nM of [3H] […] Following incubation at 30° C. for 1 hr, binding was terminated by addition of ice-cold buffer and vacuum filtration through pretreated filters in a 12-well sampling manifold (Millipore, Bedford, Mass.). After washing, filters were placed into plastic scintillation vials (Packard, Downer Grove, Ill.) and shaken. The quantity of radioactivity present was determined by liquid scintillation spectrometry.

The test system of experiment [3] is mice. Nature of the experiment: Rectal temperature (hypothermia) in mice, compound alone (agonism test). It is filed as in vivo. To be noted: Mus musculus, iv, read-out: RT: > dose, 50% activity not achieved at this highest dose tested. The method, then:
as §1, §2, §3, §4

In experiment [4] the test system is mice. Put plainly: Tail-flick antinociception in mice, compound in combination with 3 mg/kg Δ^9-THC (antagonism test). It is filed as in vivo. The method, then: as §1, §2, §3, §4
Experiment [5] relates to mice. Put plainly: Rectal temperature in mice, compound in combination with 3 mg/kg Δ^9-THC (antagonism test). It is filed as in vivo. To be noted: at 10 mg/kg i.v. The method, then: as §1, §2, §3, §4
Experiment [6] deals with mice. Put plainly: Spontaneous activity in mice, compound in combination with 3 mg/kg Δ^9-THC (antagonism test). The experiment is classed as in vivo. To be noted: for Max stim of spontaneous locomotor activity, Compound with 3 mg/kg Δ^9-THC: at 30 mg/kg i.v.; for SA: maximum % antagonism of 3 mg/kg Δ^9-THC: analog 10 min before Δ^9-THC. The method, then: as §1, §2, §3, §4

Setting [7] is: Mus musculus, iv, read-out: Max stim of spontaneous locomotor activity, Compound Alone.
[8] abbreviates: at the dose(s) [mg/kg] given in parentheses in the cell.

Read-outs that look alike come from different tables or passages of the source.

The record followed here is patent US6509367B1 (priority 2001, dated 2003).

For the molecule `Cc1c(COCc2cccc3ccccc23)nn(-c2ccc(Cl)cc2Cl)c1-c1ccc(Cl)cc1` [Compound O-852], in the experiment with mice [1] (Mus musculus, iv, at 1 mg/kg i.v., read-out: Max stim of spontaneous locomotor activity, Compound Alone), the change in vivo at 1 mg/kg was found to be 52%. In addition, the ED50 in the experiment on mice [1] (Mus musculus, iv) is > 10 mg/kg; in the experiment with mice [2] it was > 10 mg/kg; in the experiment on mice [3], > 10 mg/kg. The “stimulation of locomotor activity” value in the experiment with mice [1] (compound alone, dose not given (see Table 5)) is listed as 52%. The “Max % inhibit of spontaneous locomotor activity, Compound Alone (in words: stimulation instead of inhibition)” value with mice [1] was “stim at 1, 3 & 10”. Affinity at CB1 receptor (Ki (nM)) was put at a Ki of 78 ± 10 nM.
As to `CCCCc1ccc(-n2nc(C(=O)NN3CCCCC3)c(C)c2-c2ccc(Cl)cc2)cc1` [Compound O-1254], the change in vivo at 30 mg/kg in the experiment on mice [1] (setting [7]) amounted to 29%. The ED50 with mice [1] (Mus musculus, iv) is > 30 mg/kg; in the experiment with mice [2], > 30 mg/kg; in the experiment with mice [3], > 30 mg/kg. In addition, the “Max % inhibit of spontaneous locomotor activity, Compound Alone (in words: stimulation instead of inhibition)” value in the experiment with mice [1] is listed as “stim at 3, 10 & 30”. For the same molecule, the “% MPE: maximum % antagonism of 3 mg/kg Δ^9-THC” value in the experiment on mice [4] (at 30 mg/kg i.v.) is 52% (30). Also, on CB1 receptor (Ki (nM)), affinity was put at a Ki of 226 ± 4 nM. Further, the “RT: maximum % antagonism of 3 mg/kg Δ^9-THC” value with mice [5] is listed as 31% (10). Also, the “Max stim of spontaneous locomotor activity, Compound with 3 mg/kg Δ^9-THC” value with mice [6] is 13% (30). Besides, in the experiment on mice [6] (setting [8]), the “SA: maximum % antagonism of 3 mg/kg Δ^9-THC (in words)” value is “stimulation”. Besides, the “Max % inhibit of spontaneous locomotor activity, Compound with 3 mg/kg Δ^9-THC (in words)” value in the experiment on mice [6] (doses in mg/kg) is “stim at 10”.
For `CCCCCc1ccc(-n2nc(C(=O)NN3CCCCC3)c(C)c2-c2ccc(Cl)cc2)cc1` [Compound O-1255], the inhibition in vivo at 10 mg/kg in the experiment with mice [1] (Mus musculus, iv, at 10 mg/kg i.v., read-out: Max % inhibit of spontaneous locomotor activity, Compound Alone) turned out to be 20%. The ED50 in the experiment on mice [1] (Mus musculus, iv) was > 30 mg/kg; in the experiment with mice [2], > 30 mg/kg; with mice [3], > 30 mg/kg. In the experiment with mice [1] (setting [8]), the “Max stim of spontaneous locomotor activity, Compound Alone (in words)” value is recorded as “None (3, 10 & 30)”. In addition, the “% MPE: maximum % antagonism of 3 mg/kg Δ^9-THC” value in the experiment with mice [4] (at 10 mg/kg i.v.) is 13% (10). Also, the Ki (in general, the dissociation constant of the complex between target and ligand, obtained from inhibition or displacement) on CB1 receptor (read-out: Ki) came to 433 ± 103 nM. Moreover, the “CB1 binding affinity, fold less than the n-butyl compound” value on CB1 receptor (compared to O-1254) is recorded as ~2 fold. Further, in the experiment with mice [5], the “RT: maximum % antagonism of 3 mg/kg Δ^9-THC” value is 14% (10). Moreover, in the experiment on mice [6] (at 10 mg/kg i.v.), the “Max % inhibit of spontaneous locomotor activity, Compound with 3 mg/kg Δ^9-THC” value is recorded as 65% (10). Besides, the “SA: maximum % antagonism of 3 mg/kg Δ^9-THC” value in the experiment with mice [6] (at 10 mg/kg i.v.) is given as 0% (10). Moreover, in the experiment with mice [6] (setting [8]), the “Max stim of spontaneous locomotor activity, Compound with 3 mg/kg Δ^9-THC (in words)” value is reported as “None (10)”.
For `Cc1c(C(=O)NN2CCCCC2)nn(-c2ccccc2)c1-c1ccc(Cl)cc1` [Compound O-1300], in the experiment with mice [1] (setting [7]), the change in vivo at 30 mg/kg amounted to 54%. Besides, the ED50 was > 30 mg/kg in the experiment on mice [1] (Mus musculus, iv); > 30 mg/kg with mice [2]; > 30 mg/kg in the experiment on mice [3]. Besides, the “Max % inhibit of spontaneous locomotor activity, Compound Alone (in words: stimulation instead of inhibition)” value with mice [1] is “stim at 30”. This molecule yielded a Ki at CB1 receptor (Ki (nM)) of 150 ± 20 nM. On CB1 receptor (compared to SR 141716A), the “CB1 binding affinity, fold less than SR 141716A” value came out at 24 fold.
Turning to `CCCCCc1ccc(-c2c(C)c(C(=O)NN3CCCCC3)nn2-c2ccc(Cl)cc2Cl)cc1` [Compound O-1302, N-(Piperidin-1-yl)-1-(2,4-dichlorophenyl)-4-methyl-5-(4-pentylphenyl)-1H-pyrazole-3-carboxamide], the inhibition in vivo at 3 mg/kg in the experiment on mice [1] (Mus musculus, iv, at 3 mg/kg i.v., read-out: Max % inhibit of spontaneous locomotor activity, Compound Alone) was found to be 26%. Besides, in the experiment on mice [1] (Mus musculus, iv, at 10 mg/kg i.v., read-out: Max stim of spontaneous locomotor activity, Compound Alone), the change in vivo at 10 mg/kg worked out at 2%. Moreover, the ED50 in the experiment on mice [1] (Mus musculus, iv) was > 30 mg/kg; in the experiment on mice [2], > 30 mg/kg; in the experiment with mice [3], > 30 mg/kg. This molecule displayed a Ki at CB1 receptor (Ki (nM)) of 2.1 ± 0.08 nM. Besides, at CB1 receptor (compared to SR 141716A), the “CB1 receptor binding affinity, fold greater than SR 141716A” value is “approximately 3 fold”. For the same molecule, in the experiment on mice [6] (at 0.3 mg/kg i.v.), the “Max % inhibit of spontaneous locomotor activity, Compound with 3 mg/kg Δ^9-THC” value is listed as 74% (0.3). Moreover, the “SA: maximum % antagonism of 3 mg/kg Δ^9-THC” value in the experiment with mice [6] (at 1 mg/kg i.v.) is recorded as 91% (1). Besides, in the experiment with mice [6], the “Max stim of spontaneous locomotor activity, Compound with 3 mg/kg Δ^9-THC” value is 107% (30).
